Experiments:
laboratory beagle dogs [1] = assay: Sapanisertib escalating oral dose tolerability assessment; type: in vivo
Procedure: Determining a 0.1 mg/kg sapanisertib dosage for repeat dose studies was based upon extrapolation of previous studies in mice ([13], [20]), leading to initial evaluation of escalating individual oral doses of 0.1, 0.5, 0.65, and 0.8 mg/kg in one male (M), and one female (F) dog with a ≥3-day washout period between doses.
The initial efforts with sapanisertib focused on dose selection for ultimate testing in combination with orally administered trametinib dimethyl sulfoxide (trametinib) in nontumor-bearing laboratory beagle dogs. […] Sapanisertib dose escalation consisted of increased individual doses beginning with 0.10 mg/kg sapanisertib followed by a washout period of at least 3 days, and up to 7 days, between doses (Figure 2). Dogs lost body weight when dosed with ≥0.5 mg/kg sapanisertib. By day 23, the male dog had lost approximately 19% of initial body weight, while the female dog lost 7% body weight, and sapanisertib exposure was discontinued (Figure 2A). There was a trend toward recovery of modest amounts of body weight in these two dogs with the passage of sufficient time, post dose.
Figure 2 Sapanisertib escalating oral dose tolerability assessment in dogs. […] (A) Body weight (b.w.) changes with respect to time of first dose, in response to dosing as indicated. (B) Sapanisertib impact on select clinical pathology parameters for the testing days shown on x axis. Values on the y axis represent pre-treatment samples (0 days). Yellow-shaded area indicates reference range of values for normal healthy beagle dogs (Charles River Labs). Serum enzymes: ALT, alanine aminotransferase; AST, aspartate aminotransferase; ALP, alkaline phosphatase.

laboratory beagle dogs [2] = assay: Repeat dose tolerability: clinical observations, hematology, serum chemistry, coagulation, urinalysis; type: in vivo
Procedure: Laboratory Beagle dogs (Charles River Labs, Mattawan, MI) served as surrogates in testing compounds proposed for application in canine clinical cancer care. The animals were at least six months old and weighed 6.4–8.8 kg at the initiation of study. They had routine veterinary care and had not been used in any previous studies. The study was conducted in AAALAC-accredited animal facilities [Charles River Laboratories, Inc., Mattawan, MI; NIH Office of Laboratory Animal Welfare Assurance approval (https://olaw.nih.gov/assured/app/index.html)], under review, monitoring, and approval of the facility's Institutional Animal Care and Use Committee according to U.S. Public Health Service national guidelines and regulations for the care and use of laboratory animals. The study was not designed to incorporate Good Laboratory Practices (GLP) regulatory criteria. Animals on study were monitored daily or more frequently and body weights were recorded, while periodic specimens were obtained for laboratory analyses. Clinical pathology analyses were included for hematology, serum chemistry, coagulation, urinalysis, and chemical bioanalysis was accomplished for pharmacokinetics (PK) (Table 1, repeat dose study) (Charles River Laboratories, Mattawan, MI).
Six male and six female beagle dogs were enrolled in a parallel, three-arm, fixed, repeat oral-dose study. […] All dogs were dosed on study day 1 to obtain single dose PK samples, and then dosed serially days 4–20. Dogs were fasted overnight prior to dosing and fed ad libitum 2 h (hrs) following dose administration.
On days 10 and 15, a 2-h post-dose sample was collected. […] Treatment schedule and clinical pathology specimen sampling intervals are outlined in Table 1. […]
Sampling for hematology, serum chemistry, coagulation and urinalysis was conducted to facilitate monitoring treatment effects over various time points, and values obtained were compared to pre-treatment measurements for each subject (Table 1).

mice = test system: mice; set-up: method as in PMID 32943547; details: cited from earlier work
[3] = by day 23, escalating oral doses 0.1, 0.5, 0.65, 0.8 mg/kg
[4] = ≥ 0.5 mg/kg, both sexes, as low as

## CC(C)n1nc(-c2ccc3oc(N)nc3c2)c2c(N)ncnc21 [Sapanisertib]
Laboratory beagle dogs [1]; 0.8 mg/kg, male
  Serum chloride, times the pre-study value: 0.89 x
  Serum sodium, times the pre-study value: 0.98 x
Laboratory beagle dogs [1]; [3]
  Loss of body weight, female dog: 7%
  Loss of initial body weight, male dog: approximately 19%
Laboratory beagle dogs [1]; individual oral doses, 1 male and 1 female
  Dose at which dogs lost body weight: ≥ 0.5 mg/kg
Laboratory beagle dogs [1]; ≥ 0.5 mg/kg, both sexes
  Red blood cell reticulocyte counts: moderate to marked decreases
  Serum cholesterol concentrations: minimal to mild increases
Laboratory beagle dogs [1]; [4]
  Alanine aminotransferase (ALT), times the pre-study value: ≥ 0.41 x
  Aspartate aminotransferase (AST), times the pre-study value: ≥ 0.68 x
  Serum alkaline phosphatase (ALP), times the pre-study value: ≥ 0.36 x
Laboratory beagle dogs [2]; Day 20, one female dog (23502), considered unlikely to be inhibitor related
  Serum ALT, times pre-study: 2.10 x
Laboratory beagle dogs [2]; Day 25, greater than pre-study values, 4 dogs per group
  Dogs with minimal to marked increases in urine protein concentration: three of four
Laboratory beagle dogs [2]; Day 25, semi-quantitatively by urine dipstick
  Urine protein concentration, highest value (up to): ≥ 1,000 mg/dL
Laboratory beagle dogs [2]; Day 25, semi-quantitatively by urine dipstick, individuals of both sexes
  Urine glucose (up to): up to 250 mg/dL
Laboratory beagle dogs [2]; Day 25, Group 2 males and both sexes in Group 3
  Urine pH (up to): ≥ 9.0 pH
Laboratory beagle dogs [2]; Days 6, 11, 15, 22, and/or 25, individual dogs, within normal reference range
  Activated partial thromboplastin time (APTT) prolonged, times pretreatment (up to): up to 1.21 x
Laboratory beagle dogs [2]; Days 7 and 20, both sexes in all groups
  Serum phosphorus concentrations, times pre-study (as low as): ≥ 0.74 x
Laboratory beagle dogs [2]; Days 7 and 20, both sexes in Group 2 and males in Group 3
  Cholesterol concentrations, times pre-study (up to): up to 1.50 x
Laboratory beagle dogs [2]; at 11 days and thereafter, p < 0.05
  Group mean APTT versus dogs given trametinib alone: significantly different
Laboratory beagle dogs [2]; compared to pretreatment samples
  Prothrombin time (PT) assays: No analogous effect
Laboratory beagle dogs [2]; one male (23002) and one female (23501), Group 2, days 20 and 25, up to
  Blood neutrophils, times individual pre-study values: up to 1.95 x
Laboratory beagle dogs [2]; various time points, most pronounced in Group 3
  Individual animal fibrinogen concentration, times pretreatment (up to): up to 2.61 x
mice; mice, […] sapanisertib every other day
  Kidney findings in mice, every other day dosing: did not exhibit substantive AKI
mice; some mice given […] sapanisertib daily
  Kidney findings in mice, daily dosing: acute kidney injury (AKI) with moderate histopathological cortical tubular epithelial degeneration and necrosis

— PMC9794608 (Frontiers in Veterinary Science, 2022)
